# Test results reported in patent US20250295143A1, “USE OF ALPHA LIPOIC ACID AS A FEED ADDITIVE FOR AQUATIC ANIMALS” (DSM IP ASSETS B.V., priority 2018, published 2025).
# Legend:
# phagocytes = assay: Oxidative burst of phagocytes from rainbow trout fed LA; type: cell-based; conditions: rainbow trout fed 125, 250 and 500 mg/kg for 4 weeks; any treatment group vs control
# Description: (§1) Rainbow trout were fed for 4 weeks with graded levels of LA (125, 250 and 500 mg/kg) compared to basal control diet fed fish. A range of functional immune assays of tissues/cells obtained at the end of the feeding period were conducted to investigate the possible mode of action observed in the disease challenge studies.
# The capacity of Oxidative burst of phagocytes was assayed to assess anti-oxidation or pro-oxidation activity, as widely reported for use of LA (Kutter et al., 2014).
# IPN [1] = assay: Mortality in Atlantic salmon following IPN challenge; type: in vivo; conditions: A. salmon
# Description: (§2) The first study evaluated dietary alpha-lipoic acid (LA) at 500 mg/kg compared to control basal diet fed fish. Pre-feeding experimental diets for ˜5 weeks, growing from ˜0.2 g to ˜0.5 g in 4 replicate tanks per diet. Water temperature at 12° C.±1° C. Min. 30 fish per diet (tank). Disease challenge by cohabitation with fish infected with Salmon Alfa Virus (SAV).
# (§3) This was intended to transmit the infection to the test groups leading to clinical Pancreas Disease (PD). The challenge lasted for 9.5 weeks (˜2 g), mortality recorded daily.
# The fourth study evaluated dietary alpha-lipoic acid at 3 doses 500, 750 and 1000 mg/kg compared to control basal diet fed fish for resistance to virus disease (IPN). The experiment was carried out as described for the first study.
# [2] = system: white spot syndrome virus (WSSV); assay: Mortality in shrimp following WSSV challenge; type: in vivo
# Description: The fourth study evaluated dietary alpha-lipoic acid at 650 mg/kg compared to control basal diet fed shrimp for resistance to white spot syndrome virus disease (WSSV). The experiment was carried out under standard conditions for shrimp. Pre-feeding experimental diets for ˜4 weeks. Mortality was recorded daily.
# Salmon Alfa Virus (SAV) = assay: Mortality in Atlantic salmon fry following SAV challenge by cohabitation (Pancreas Disease); type: in vivo; conditions: for survival compared to control diet fed fish / Relative Percent Survival (RPS): Study 2, SAV challenge; for end mortality compared to control: Study 3, all three SAV challenge trials
# Description: as §2, §3
# The second study evaluated dietary alpha-lipoic acid at 3 doses 125, 250 and 500 mg/kg compared to control basal diet fed fish for resistance to virus disease (PD). The experiment was carried out as described for the first study.
# In this study three separate virus challenge trials evaluated dietary alpha-lipoic acid at 3 doses 250, 500 and 1000 mg/kg compared to control basal diet fed fish for resistance to virus disease (PD). The experiment was carried out as described for the first study.
# IPN [3] = assay: Performance (growth reduction) of Atlantic salmon following IPN challenge; type: in vivo
# Description: This study evaluated dietary alpha-lipoic acid at 3 doses 500, 750 and 1000 mg/kg compared to control basal diet fed fish for performance after disease (IPN) challenge in atlantic salmon and was carried out in succession of the fifth study by weighting the fish and comparing the challenged LA and control fed fish with the unchallenged control fed fish.
# Noda Virus (VNN) = assay: Mortality in Sea Bass fry following VNN (Noda virus) challenge by cohabitation; type: in vivo
# Description: The seventh study evaluated dietary alpha-lipoic acid (LA) at 250, 500 and 750 mg/kg compared to control basal diet fed fish in Sea Bass fry. Pre-feeding experimental diets for 5-6 weeks, growing from ˜0.7 g to ˜1.4 g. Water temperature at 25° C. 133 fish per diet (tank). Disease challenge by cohabitation with fish infected with Noda Virus (VNN). This was intended to transmit the infection to the test groups. Mortality was recorded daily.
# [4] = Feed conversion ratio (FCR) in rainbow trout; type: in vivo; conditions: for (Cumulative) Feed conversion ratio (FCR), Feed as fed basis (kg)/weight gain (kg), Mean: rainbow trout
# Description: This study evaluated dietary alpha-lipoic acid at 3 doses 250, 500 and 1000 mg/kg compared to control basal diet fed fish for feed conversion ratio. Rainbow trout with an initial weight around 50 g were fed for ˜6 weeks with graded levels of LA compared to basal control diet fed fish in 4 replicate tanks per diet with 50 fish per tank. The fish were fed automatically and daily with an excess of experimental diets with regard to feeding instructions for control basal diet and weighted every two weeks. Excess feed was removed daily.
# lymphocytes = assay: Apoptosis of lymphocytes from rainbow trout fed LA; type: cell-based
# Description: as §1
# The apoptosis pathway (programmed cell death) was investigated by assaying the ability of lymphocytes to prevent apoptosis occurring following incubation with Campto, a chemical stimulator of apoptosis. […] This level of reduction in apoptosis is quite remarkable.
structure (smiles),measurement,setting,value
O=C(O)CCCCC1CCSS1 (stereo not drawn) [alpha-lipoic acid],extracellular or intracellular oxidative burst of phagocytes,phagocytes,no significant difference
same,RPS,IPN [1]; 500 ppm in diet vs control,7.1%
same,RPS,"IPN [1]; 500 ppm in diet vs control, listed as LA",7%
same,Mean Survival,IPN [1]; 500 ppm in diet,62.0%
same,Mean mortality,IPN [1]; 500 ppm in diet,38.0%
same,RPS,IPN [1]; 750 ppm in diet vs control,27.6%
same,RPS,"IPN [1]; 750 ppm in diet vs control, listed as LA",28%
same,Mean Survival,IPN [1]; 750 ppm in diet,70.4%
same,Mean mortality,IPN [1]; 750 ppm in diet,29.6%
same,RPS,IPN [1]; 1000 ppm in diet vs control,−1.0%
same,RPS,"IPN [1]; 1000 ppm in diet vs control, listed as LA",−1%
same,Mean Survival,IPN [1]; 1000 ppm in diet,58.7%
same,Mean mortality,IPN [1]; 1000 ppm in diet,41.3%
same,Mean Survival,[2]; 650 ppm in diet,30.0%
same,Mean mortality,[2]; 650 ppm in diet,70.0%
same,RPS,[2]; 650 ppm in diet vs control,8.7%
same,relative percent survival (RPS) compared to control diet,"Salmon Alfa Virus (SAV); Study 1, 500 mg/kg feed, A. salmon fry, SAV challenge 9.5 weeks",63%
same,survival compared to control diet fed fish,Salmon Alfa Virus (SAV); 125 mg/kg,no observed effect
same,survival compared to control diet fed fish,Salmon Alfa Virus (SAV); 250 mg/kg,tendency for improved survival but this was not statistically significant
same,Relative Percent Survival (RPS),"Salmon Alfa Virus (SAV); 125 ppm in diet vs control, A. salmon fry",−17%
same,Relative Percent Survival (RPS),"Salmon Alfa Virus (SAV); 250 ppm in diet vs control, A. salmon fry",8%
same,Relative Percent Survival (RPS),"Salmon Alfa Virus (SAV); 500 ppm in diet vs control, A. salmon fry",34%
same,Relative Percent Survival (RPS),"Salmon Alfa Virus (SAV); 500 ppm in diet vs control, A. salmon fry, listed as LA",34%
same,end mortality compared to control,Salmon Alfa Virus (SAV); high dose 1000 mg/kg,significantly reduced
same,end mortality compared to control,Salmon Alfa Virus (SAV); medium dose 500 mg/kg,significantly reduced
same,performance compared to challenged control diet fed fish,IPN [3]; 500 mg/kg,performed better
same,performance compared to challenged control diet fed fish,IPN [3]; 750 mg/kg,significantly better performance
same,performance compared to challenged control diet fed fish,IPN [3]; 1000 mg/kg,did not perform significantly better
same,Mean Survival,Noda Virus (VNN); 250 ppm in diet,84.2%
same,Mean mortality,Noda Virus (VNN); 250 ppm in diet,15.8%
same,RPS,Noda Virus (VNN); 250 ppm in diet vs control,59.6%
same,RPS,"Noda Virus (VNN); 250 ppm in diet vs control, listed as lipoic acid",60%
same,Mean Survival,Noda Virus (VNN); 500 ppm in diet,86.7%
same,Mean mortality,Noda Virus (VNN); 500 ppm in diet,13.3%
same,RPS,Noda Virus (VNN); 500 ppm in diet vs control,66.0%
same,RPS,"Noda Virus (VNN); 500 ppm in diet vs control, listed as lipoic acid",66%
same,Mean Survival,Noda Virus (VNN); 750 ppm in diet,78.3%
same,Mean mortality,Noda Virus (VNN); 750 ppm in diet,21.7%
same,RPS,Noda Virus (VNN); 750 ppm in diet vs control,44.7%
same,RPS,"Noda Virus (VNN); 750 ppm in diet vs control, listed as lipoic acid",45%
same,"(Cumulative) Feed conversion ratio (FCR), Feed as fed basis (kg)/weight gain (kg), Mean","[4]; AL 250, period 0-15 days",0.65
same,"(Cumulative) Feed conversion ratio (FCR), Feed as fed basis (kg)/weight gain (kg), Mean","[4]; AL 250, period 0-30 days",0.67
same,"(Cumulative) Feed conversion ratio (FCR), Feed as fed basis (kg)/weight gain (kg), Mean","[4]; AL 250, period 0-44 days",0.67
same,"(Cumulative) Feed conversion ratio (FCR), Feed as fed basis (kg)/weight gain (kg), Mean","[4]; AL 500, period 0-15 days",0.66
same,"(Cumulative) Feed conversion ratio (FCR), Feed as fed basis (kg)/weight gain (kg), Mean","[4]; AL 500, period 0-30 days",0.67
same,"(Cumulative) Feed conversion ratio (FCR), Feed as fed basis (kg)/weight gain (kg), Mean","[4]; AL 500, period 0-44 days",0.68
same,"(Cumulative) Feed conversion ratio (FCR), Feed as fed basis (kg)/weight gain (kg), Mean","[4]; AL 1000, period 0-15 days",0.65
same,"(Cumulative) Feed conversion ratio (FCR), Feed as fed basis (kg)/weight gain (kg), Mean","[4]; AL 1000, period 0-30 days",0.67
same,"(Cumulative) Feed conversion ratio (FCR), Feed as fed basis (kg)/weight gain (kg), Mean","[4]; AL 1000, period 0-44 days",0.68
same,feed conversion ratios compared to control diet fed fish,"[4]; rainbow trout fed 250, 500 and 1000 mg/kg for ~6 weeks",improved
same,basal apoptosis activity of lymphocytes,"lymphocytes; no Campto used, LA treatment groups, not significant",trend for lower basal apoptosis activity
same,apoptotic cells (lymphocytes) after incubation with Campto,lymphocytes; rainbow trout fed 500 mg/kg for 4 weeks,significant reduction
same,reduction of apoptotic cells (lymphocytes) after incubation with Campto,"lymphocytes; rainbow trout fed graded levels 125, 250 and 500 mg/kg for 4 weeks",clear dose response
